# From article PMC4510350 (PLoS Neglected Tropical Diseases, 2015)
# Entries after “also recorded” stand apart in the source; their conditions may differ. Where a SMILES comes first, the peptide text is derived from it. Where no end group is shown, it is not given here. [ ]: non-standard residue; d: D form.
# Columns and labels:
# B. thailandensis (E264) = conditions: pH 7.4
# B. pseudomallei = conditions: cited from earlier work
# [1] = test system: B. thailandensis E264 pre-formed biofilm; assay type: cell-based, Burkholderia thailandensis; conditions: n = 8
# B. thailandensis biofilm = assay type: cell-based, Burkholderia thailandensis
# [2] = test system: multiple Burkholderia species; conditions: cited from earlier work
molecule,measurement,setting,value
HNP-3,antimicrobial activity / whether an EC50 could be determined,B. thailandensis (E264),could not be calculated because the peptide was ineffective
bactenecin,antimicrobial activity against B. pseudomallei,B. pseudomallei,antimicrobial against B. pseudomallei
CC(C)C[C@@H](NC(=O)[C@@H](CCCCN)NC(=O)[C@@H](CCCCN)NC(=O)[C@@H](Cc1ccccc1)NC(=O)[C@@H](Cc1ccccc1)NC(=O)[C@@H](CCCCN)NC(=O)[C@@H](CCCCN)NC(=O)[C@@H](C)NC(=O)[C@@H](CCCNC(=N)N)NC(=O)[C@H](N)CCCCN)C(=O)N[C@H](CCCCN)C(N)=O [D-ATRA-1A] (H-[dK][dR][dA][dK][dK][dF][dF][dK][dK][dL][dK]-NH2; N-terminus and C-terminus assumed),dispersion of pre-formed biofilm,[1],no biofilm dispersion activity
same,EC50,B. thailandensis (E264); 3 h,4.82 µM
same,EC50 (μg/ml),B. thailandensis (E264); 3 h,6.86 µg/mL
same,biofilm inhibition,B. thailandensis biofilm,"did slightly, but only at the highest concentration of peptide tested (300 μg/ml); also recorded: Minimal biofilm inhibition"
"hBD-3 (GIINTLQKYYCRVRGGRCAVLSCLPKEEQIGKCSTRGRKCCRRKK; ends and bridges not checked; cysteine pairing not given here; UniProt P81534 23-67, looked up)",LD50 against multiple Burkholderia species,[2],> 100 µg/mL
KRAKKFFKKPK [ATRA-2],dispersion of pre-formed biofilm,[1],no biofilm dispersion activity
same,biofilm inhibition,B. thailandensis biofilm,did not inhibit biofilm formation; also recorded: not biofilm inhibition
KRAKKFFKKLK-NH2 [ATRA-1A],EC50,B. thailandensis (E264); 3 h,9.83 µM
"HNP-4 (VCSCRLVFCRRTELRVGNCLIGGVSFTYCCTRV; ends and bridges not checked; cysteine pairing not given here; UniProt P12838 64-96, looked up)",antimicrobial activity / whether an EC50 could be determined,B. thailandensis (E264),could not be calculated because the peptide was ineffective
KRFKKFFKKLK [ATRA-1],EC50,B. thailandensis (E264); 3 h,6.94 µM
CC(C)(O/N=C(\C(=O)N[C@@H]1C(=O)N2C(C(=O)[O-])=C(C[n+]3ccccc3)CS[C@H]12)c1csc(N)n1)C(=O)O [Ceftazidime],biofilm inhibition,B. thailandensis biofilm,did not inhibit biofilm production; also recorded: did not show biofilm inhibition
RGRKSSRRKK [Peptide 4 of hBD-3],antimicrobial activity / whether an EC50 could be determined,B. thailandensis (E264),could not be calculated because the peptide was ineffective
same,killing of B. thailandensis at highest concentration tested,B. thailandensis (E264),65%
GLKLRFEFSKIKGEFLKTPEVRFRDIKLKDNRISVQR [Scrambled LL-37],biofilm inhibition,B. thailandensis biofilm,did not inhibit biofilm; also recorded: did not show biofilm inhibition
